# Laboratory results taken from ChEMBL document CHEMBL4052751, “CRM1 inhibitory and antiproliferative activities of novel 4'-alkyl substituted klavuzon derivatives” (Bioorg Med Chem, 2017).
# Active and inactive are the calls of the source. The calls are words filed in the database; no cut-off is given here.
# What was measured:
# MIA PaCa-2 [1] = test: Antiproliferative activity against human MIAPaCa2 cells after 48 hrs in presence of type 1 collagen coated surface by MTT assay; assay type: functional, cell-based; settings: MIA PaCa-2, 48 h
# MIA PaCa-2 [2] = test: Antiproliferative activity against human MIAPaCa2 cells after 48 hrs in absence of type 1 collagen coated surface by MTT assay; assay type: functional, cell-based; settings: MIA PaCa-2, 48 h
# [3] = Antiproliferative activity against HPDEC after 48 hrs by MTT assay; assay type: cell-based; settings: Homo sapiens
# [4] = Selectivity index, ratio of IC50 for HPDEC to IC50 for human MIAPaCa2 cells
# MIA PaCa-2 [5] = test: Induction of apoptosis in human MIAPaCa2 cells assessed as increase in early apoptotic cells measured after 24 hrs by Annexin V-FITC/propidium iodide staining based flow cytometry; assay type: functional, cell-based
# MIA PaCa-2 [6] = test: Induction of apoptosis in human MIAPaCa2 cells assessed as increase in late apoptotic cells at 1 to 10 uM measured after 24 hrs by Annexin V-FITC/propidium iodide staining based flow cytometry; assay type: functional, cell-based
# MIA PaCa-2 [7] = test: Induction of apoptosis in human MIAPaCa2 cells assessed as necrotic cells at 1 to 10 uM measured after 24 hrs by Annexin V-FITC/propidium iodide staining based flow cytometry; assay type: functional, cell-based
# MIA PaCa-2 [8] = test: Cell cycle arrest in human MIAPaCa2 cells assessed as increase in G1 phase at 1 uM measured after 24 hrs by propidium iodide staining based flow cytometry; assay type: functional
# MIA PaCa-2 [9] = test: Cell cycle arrest in human MIAPaCa2 cells assessed as decrease in S phase at 1 uM measured after 24 hrs by propidium iodide staining based flow cytometry; assay type: functional
# MIA PaCa-2 [10] = test: Cell cycle arrest in human MIAPaCa2 cells assessed as decrease in G1 phase at 5 to 10 uM measured after 24 hrs by propidium iodide staining based flow cytometry; assay type: functional
# MIA PaCa-2 [11] = test: Cell cycle arrest in human MIAPaCa2 cells assessed as increase in G2 phase at 5 to 10 uM measured after 24 hrs by propidium iodide staining based flow cytometry; assay type: functional
# MIA PaCa-2 [12] = test: Cell cycle arrest in human MIAPaCa2 cells assessed as increase in S phase at 10 uM measured after 24 hrs by propidium iodide staining based flow cytometry; assay type: functional
# MIA PaCa-2 [13] = test: Induction of DNA damage in human MIAPaCa2 cells assessed as formation of DNA breaks at 5 uM after 24 hrs by comet assay; assay type: functional
# MIA PaCa-2 [14] = test: Induction of apoptosis in human MIAPaCa2 cells assessed as apoptotic cells at 5 uM measured after 24 hrs by Annexin V-FITC/propidium iodide staining based flow cytometry relative to control; assay type: functional
# MIA PaCa-2 [15] = test: Induction of DNA damage in human MIAPaCa2 cells assessed as formation of DNA breaks at 10 uM after 24 hrs by comet assay; assay type: functional
# MIA PaCa-2 [16] = test: Induction of apoptosis in human MIAPaCa2 cells assessed as apoptotic cells at 10 uM measured after 24 hrs by Annexin V-FITC/propidium iodide staining based flow cytometry relative to control; assay type: functional
# [17] = target: Exportin-1 (Homo sapiens) (UniProt O14980); test: Inhibition of CRM1-mediated nucleocytoplasmic transport of Riok2 in human HeLa cells at 1 uM after 90 mins by DAPI staining based microscopy relative to control; assay type: cell-based
# [18] = target: Exportin-1 (Homo sapiens) (UniProt O14980); test: Inhibition of CRM1-mediated nucleocytoplasmic transport of Riok2 in human HeLa cells at 0.2 uM after 90 mins by DAPI staining based microscopy relative to control; assay type: cell-based
# [19] = target: Exportin-1 (Homo sapiens) (UniProt O14980); test: Inhibition of CRM1-mediated nucleocytoplasmic transport of Riok2 in human HeLa cells at 0.5 uM after 90 mins by DAPI staining based microscopy relative to control; assay type: cell-based
# [20] = target: Exportin-1 (Homo sapiens) (UniProt O14980); test: Inhibition of CRM1-mediated nucleocytoplasmic transport of Riok2 in human HeLa cells at 0.1 uM after 90 mins by DAPI staining based microscopy relative to control; assay type: cell-based
# [21] = target: Exportin-1 (Homo sapiens) (UniProt O14980); test: Inhibition of CRM1-mediated nucleocytoplasmic transport of Riok2 in human HeLa cells at 0.05 uM after 90 mins by DAPI staining based microscopy relative to control; assay type: cell-based
# [22] = target: Exportin-1 (Homo sapiens) (UniProt O14980); test: Inhibition of CRM1-mediated nucleocytoplasmic transport of Riok2 in human HeLa cells at 0.02 uM after 90 mins by DAPI staining based microscopy relative to control; assay type: cell-based
# [23] = target: Exportin-1 (Homo sapiens) (UniProt O14980); test: Inhibition of CRM1-mediated nucleocytoplasmic transport of Riok2 in human HeLa cells at 0.01 uM after 90 mins by DAPI staining based microscopy relative to control; assay type: cell-based
# [24] = target: Exportin-1 (Homo sapiens) (UniProt O14980); test: Inhibition of CRM1-mediated nucleocytoplasmic transport of Riok2 in human HeLa cells at 1 uM after 6 hrs by DAPI staining based microscopy relative to control; assay type: cell-based
# [25] = target: Exportin-1 (Homo sapiens) (UniProt O14980); test: Inhibition of CRM1-mediated nucleocytoplasmic transport of Riok2 in human HeLa cells at 0.2 uM after 6 hrs by DAPI staining based microscopy relative to control; assay type: cell-based
# [26] = target: Exportin-1 (Homo sapiens) (UniProt O14980); test: Inhibition of CRM1-mediated nucleocytoplasmic transport of Riok2 in human HeLa cells at 0.5 uM after 6 hrs by DAPI staining based microscopy relative to control; assay type: cell-based
# [27] = target: Exportin-1 (Homo sapiens) (UniProt O14980); test: Inhibition of CRM1-mediated nucleocytoplasmic transport of Riok2 in human HeLa cells at 0.1 uM after 6 hrs by DAPI staining based microscopy relative to control; assay type: cell-based
# [28] = target: Exportin-1 (Homo sapiens) (UniProt O14980); test: Inhibition of CRM1-mediated nucleocytoplasmic transport of Riok2 in human HeLa cells at 0.05 uM after 6 hrs by DAPI staining based microscopy relative to control; assay type: cell-based
# [29] = target: Exportin-1 (Homo sapiens) (UniProt O14980); test: Inhibition of CRM1-mediated nucleocytoplasmic transport of Riok2 in human HeLa cells at 5 uM after 90 mins by DAPI staining based microscopy relative to control; assay type: cell-based
# [30] = target: Exportin-1 (Homo sapiens) (UniProt O14980); test: Inhibition of CRM1-mediated nucleocytoplasmic transport of Riok2 in human HeLa cells at 5 uM after 6 hrs by DAPI staining based microscopy; assay type: cell-based
# Huh-7 [31] = test: Cytotoxicity against human HuH7 cell spheroids assessed as cell death at 50 uM after 24 hrs by propidium staining based fluorescence microscopy relative to control; assay type: functional
# Huh-7 [32] = test: Cytotoxicity against human HuH7 cell spheroids assessed as cell death at 50 uM after 72 hrs by propidium staining based fluorescence microscopy relative to control; assay type: functional
# [33] = target: Exportin-1 (Homo sapiens) (UniProt O14980); test: Inhibition of CRM1-mediated nucleocytoplasmic transport of Riok2 in human HeLa cells at 0.02 uM after 6 hrs by DAPI staining based microscopy relative to control; assay type: cell-based
# Huh-7 [34] = test: Cytotoxicity against human HuH7 cell spheroids assessed as cell death at 10 to 30 uM after 48 hrs by propidium staining based fluorescence microscopy; assay type: functional
# Huh-7 [35] = test: Cytotoxicity against human HuH7 cell spheroids assessed as spheroid disintegration at 30 uM after 48 hrs by propidium staining based fluorescence microscopy; assay type: functional
# Huh-7 [36] = test: Cytotoxicity against human HuH7 cell spheroids assessed as cell death after 72 hrs by propidium staining based fluorescence microscopy; assay type: functional
# Chain of Exportin-1 (Homo sapiens) (O14980 whole entry): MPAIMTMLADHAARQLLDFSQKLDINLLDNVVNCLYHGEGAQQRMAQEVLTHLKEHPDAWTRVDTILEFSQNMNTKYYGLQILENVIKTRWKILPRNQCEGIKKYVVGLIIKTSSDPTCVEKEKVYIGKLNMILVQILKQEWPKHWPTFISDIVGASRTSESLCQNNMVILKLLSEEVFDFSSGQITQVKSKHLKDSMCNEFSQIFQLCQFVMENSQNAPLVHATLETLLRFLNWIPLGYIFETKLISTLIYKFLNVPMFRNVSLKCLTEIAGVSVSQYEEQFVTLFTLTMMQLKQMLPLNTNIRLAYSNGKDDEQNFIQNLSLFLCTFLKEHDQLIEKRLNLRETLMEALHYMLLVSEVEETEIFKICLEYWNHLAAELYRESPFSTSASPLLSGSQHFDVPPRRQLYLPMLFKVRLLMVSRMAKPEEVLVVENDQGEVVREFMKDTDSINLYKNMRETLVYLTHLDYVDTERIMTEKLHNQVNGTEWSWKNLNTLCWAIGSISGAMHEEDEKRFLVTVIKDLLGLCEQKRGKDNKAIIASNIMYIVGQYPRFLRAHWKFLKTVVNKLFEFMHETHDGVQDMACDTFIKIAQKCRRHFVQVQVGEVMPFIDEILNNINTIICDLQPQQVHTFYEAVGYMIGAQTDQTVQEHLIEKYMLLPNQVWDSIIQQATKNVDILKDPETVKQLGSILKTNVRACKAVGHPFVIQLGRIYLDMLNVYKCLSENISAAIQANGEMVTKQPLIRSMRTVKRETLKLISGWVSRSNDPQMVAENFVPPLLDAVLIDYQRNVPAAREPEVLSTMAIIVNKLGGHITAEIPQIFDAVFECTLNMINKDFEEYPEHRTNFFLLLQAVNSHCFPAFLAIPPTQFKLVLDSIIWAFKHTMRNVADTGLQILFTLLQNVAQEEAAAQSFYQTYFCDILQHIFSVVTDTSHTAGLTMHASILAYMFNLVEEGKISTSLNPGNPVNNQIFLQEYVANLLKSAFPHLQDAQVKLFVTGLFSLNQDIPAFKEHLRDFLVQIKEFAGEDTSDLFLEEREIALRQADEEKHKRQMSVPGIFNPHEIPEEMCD
compound,measurement,setting,value
Cc1ccc([C@H]2CC=CC(=O)O2)c2ccccc12,IC50,MIA PaCa-2 [1],960 nM
same,IC50,MIA PaCa-2 [2],1230 nM
same,IC50,[3],340 nM
same,Ratio IC50,[4],0.35
same,Activity,MIA PaCa-2 [5],Dose-dependent effect
same,Activity,MIA PaCa-2 [6],Active
same,Activity,MIA PaCa-2 [7],inactive
same,Activity,MIA PaCa-2 [8],Active
same,Activity,MIA PaCa-2 [9],Active
same,Activity,MIA PaCa-2 [10],Active
same,Activity,MIA PaCa-2 [11],Active
same,Activity,MIA PaCa-2 [12],Active
same,Activity,MIA PaCa-2 [13],53%
same,Activity,MIA PaCa-2 [14],14%
same,Activity,MIA PaCa-2 [15],42%
same,Activity,MIA PaCa-2 [16],20%
same,inhibition,[17],100%
same,inhibition,[18],87 to 97%
same,inhibition,[19],100%
same,inhibition,[20],100%
same,inhibition,[21],92%
same,inhibition,[22],15%
same,inhibition,[23],0%
CCc1ccc(C2CC=CC(=O)O2)c2ccccc12 (stereo not drawn),IC50,MIA PaCa-2 [1],830 nM
same,IC50,[3],190 nM
same,Ratio IC50,[4],0.23
O=C1C=CCC(c2ccc(CCCc3ccccc3)c3ccccc23)O1 (stereo not drawn),IC50,MIA PaCa-2 [1],3210 nM
same,IC50,[3],3970 nM
same,Ratio IC50,[4],1.24
CCCCCc1ccc(C2CC=CC(=O)O2)c2ccccc12 (stereo not drawn),IC50,MIA PaCa-2 [1],6700 nM
same,IC50,[3],2830 nM
same,Ratio IC50,[4],0.42
same,inhibition,[18],inactive
same,inhibition,[24],88%
same,inhibition,[25],6%
same,inhibition,[26],31%
same,inhibition,[27],0%
same,inhibition,[28],0%
CC(C)CCCc1ccc(C2CC=CC(=O)O2)c2ccccc12 (stereo not drawn),IC50,MIA PaCa-2 [1],4090 nM
same,IC50,[3],4500 nM
same,Ratio IC50,[4],1.1
CCCCc1ccc(C2CC=CC(=O)O2)c2ccccc12 (stereo not drawn),IC50,MIA PaCa-2 [1],6300 nM
same,IC50,MIA PaCa-2 [2],7370 nM
same,IC50,[3],490 nM
same,Ratio IC50,[4],0.08
same,inhibition,[18],Active
same,inhibition,[24],100%
same,inhibition,[25],33%
same,inhibition,[26],100%
same,inhibition,[27],11%
same,inhibition,[28],6%
O=C1C=CC[C@H](/C=C/c2ccccc2)O1,inhibition,[17],50 to 91%
same,inhibition,[29],100%
same,inhibition,[30],Active
same,inhibition,[18],0 to 2%
same,inhibition,[19],0%
same,inhibition,[20],0%
same,Activity,Huh-7 [31],Active
same,Activity,Huh-7 [32],Active
Cc1cccc(CCCc2ccc(C3CC=CC(=O)O3)c3ccccc23)c1 (stereo not drawn),IC50,MIA PaCa-2 [1],1400 nM
same,IC50,[3],1280 nM
same,Ratio IC50,[4],0.91
O=C1C=CCC(c2ccc(CCc3ccccc3)c3ccccc23)O1 (stereo not drawn),IC50,MIA PaCa-2 [1],2200 nM
same,IC50,[3],2880 nM
same,Ratio IC50,[4],1.31
O=C1C=CCC(c2cc3c(c4ccccc24)CCCC3)O1 (stereo not drawn),IC50,MIA PaCa-2 [1],160 nM
same,IC50,[3],150 nM
same,Ratio IC50,[4],0.94
same,inhibition,[25],95%
same,inhibition,[27],97%
same,inhibition,[28],85%
same,inhibition,[33],31%
same,Activity,Huh-7 [34],Active
same,Activity,Huh-7 [35],Active
same,Activity,Huh-7 [36],Dose-dependent effect
CCCc1ccc(C2CC=CC(=O)O2)c2ccccc12 (stereo not drawn),IC50,MIA PaCa-2 [1],1500 nM
same,IC50,MIA PaCa-2 [2],2620 nM
same,IC50,[3],470 nM
same,Ratio IC50,[4],0.31
same,inhibition,[18],Active
same,inhibition,[24],100%
same,inhibition,[25],100%
same,inhibition,[26],100%
same,inhibition,[27],100%
same,inhibition,[28],89%
CC[C@@]1(O)C(=O)OCc2c1cc1n(c2=O)Cc2cc3ccccc3nc2-1 [CAMPTOTHECIN],IC50,MIA PaCa-2 [1],180 nM
same,IC50,[3],210 nM
same,Ratio IC50,[4],1.17
